Where two headings read alike, the source gives them in different places.
Experiments:
[1] = Body weight of xenograft mice (Example 9); type: in vivo; conditions: doses as in Example 9
Experimental: To monitor toxicity, animal body weights were measured and plotted in FIG. 10.

PC-3 xenograft = conditions: for Complete tumor regression: tumors regressed/total
Experimental: The tumor sizes were measured 2 times a week and calculated as: Tumor Volume=(A×B^2)/2 where A and B are the tumor length and width (in mm), respectively.

Bcl-2 = Bcl-2 (Homo sapiens, UniProt P10415); assay: Fluorescence polarization in vitro Bcl-2 binding assay
Experimental: Bcl-2 used in this assay is a recombinant His-fused soluble protein. […] Inc., Research Triangle Park, N.C.). […] The unlabeled Bid peptide is used as the positive control. The Ki values were calculated using our developed equation for FP assay (Nikolovska-Coleska et al., Anal. Biochem., 2004, in press). The program for calculating a Ki value is available free of charge via the Internet at http://sw16.im.med.umich.edu/software/calc_ki/.

human Bcl-xL = human Bcl-xL (Homo sapiens, UniProt Q07817); assay: Fluorescence polarization in vitro Bcl-xL binding assay; conditions: displacement of Flu-Bak peptide
Excerpt: For determination of the binding affinity to Bcl-xL protein a human Bcl-xL recombinant His-tagged protein without the C-terminus hydrophobic tail and the Bak-16mer BH3 peptide labeled with 6-carboxyfluorescein succinimidyl ester (FAM) were used.

MDA-MB-231 (2LMP) cells = assay: Cell growth of MDA-MB-231 (2LMP) cells (WST); type: cell-based; conditions: Homo sapiens, read-out: IC50 of cell growth inhibition
MDA-231 cells = assay: Cell survival with CDDP and TW-37 alone or in combination; type: cell-based, human; conditions: CDDP alone, 42 hours
Excerpt: CDDP is a DNA damaging agent and can effectively induce apoptosis in MDA-231 breasted cancer cells and is also a clinically used chemotherapeutic drug for cancer.

Chain of human Bcl-xL (Q07817 1-209 limits assumed): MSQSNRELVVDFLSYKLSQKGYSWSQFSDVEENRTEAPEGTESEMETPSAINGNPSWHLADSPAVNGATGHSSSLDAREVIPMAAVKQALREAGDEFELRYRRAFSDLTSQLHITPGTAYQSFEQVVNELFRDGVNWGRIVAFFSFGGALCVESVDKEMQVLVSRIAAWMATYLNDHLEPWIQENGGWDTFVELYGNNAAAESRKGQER
Chain of Bcl-2 (P10415 92-205 limits assumed): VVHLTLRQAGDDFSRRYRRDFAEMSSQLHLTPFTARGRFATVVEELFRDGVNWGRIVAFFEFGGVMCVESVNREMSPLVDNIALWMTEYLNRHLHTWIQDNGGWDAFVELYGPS

SMILES	IC50 (human Bcl-xL) [µM]	IC50 (MDA-MB-231 (2LMP) cells) [µM]	also measured
CC(=O)O[C@@]12CO[C@@H]1C[C@H](O)[C@@]1(C)C(=O)[C@H](O)C3=C(C)[C@@H](OC(=O)[C@H](O)[C@@H](NC(=O)OC(C)(C)C)c4ccccc4)C[C@@](O)([C@@H](OC(=O)c4ccccc4)[C@H]21)C3(C)C [TAXOTERE, (2R,3S)-N-carboxy-3-phenylisoserine, N-tert-butyl ester, 13-ester with 5b-20-epoxy-12a,4,7b,10b,13a-hexahydroxytax-11-en-9-one 4-acetate 2-benzoate, trihydrate]	–	–	body weight during treatment [1]: reversible body weight loss; T-C (days) tumor growth delay (PC-3 xenograft; TXT 7.5 mg/kg): 30 days; T/C (%) tumor growth inhibition (PC-3 xenograft; TXT 7.5 mg/kg): 55.1%; activity under the NCI criteria (T/C<42%) (PC-3 xenograft; TXT 7.5 mg/kg): is not; Complete tumor regression (PC-3 xenograft; TXT 7.5 mg/kg): 0/10; T-C (days) tumor growth delay (PC-3 xenograft; TXT 11 mg/kg): 32 days; T/C (%) tumor growth inhibition (PC-3 xenograft; TXT 11 mg/kg): 32.1%; activity under the NCI criteria (T/C<42%) (PC-3 xenograft; TXT 11 mg/kg): significantly active; Complete tumor regression (PC-3 xenograft; TXT 11 mg/kg): 0/10
Cc1cc(Cc2cc(Cc3ccccc3)c(O)c(O)c2O)c(C(C)C)cc1Oc1ccc2ccccc2n1 [TM-150]	–	0.1 to 20	–
CC(C)c1cc(Cc2cc(Cc3ccccc3)c(O)c(O)c2O)ccc1O [TM-152]	–	0.1 to 20	–
CC(C)c1cc(Cc2cc(Cc3ccccc3)c(O)c(O)c2O)ccc1Oc1ccc2ccccc2n1 [TM-153]	–	0.1 to 20	–
CC(C)c1cc(Cc2cc(Cc3ccccc3)c(O)c(O)c2O)ccc1Oc1ccnc2ccccc12 [TM-154]	–	0.1 to 20	–
CC(C)c1cc(Cc2cc(Cc3ccccc3)c(O)c(O)c2O)ccc1Oc1ccc([N+](=O)[O-])cc1C(F)(F)F [TM-155]	–	0.1 to 20	–
Cc1cc(Oc2ccc(Cc3cc(Cc4ccccc4)c(O)c(O)c3O)cc2C(C)C)c2ccccc2n1 [TM-156]	–	0.1 to 20	–
O=C(c1ccc(Oc2ccccc2)cc1)c1cc(-c2cccc3ccccc23)c(O)c(O)c1O [TM-165]	> 1	0.1 to 20	–
O=C(c1ccc(Oc2ccccc2)cc1)c1ccc(O)c(O)c1O [TM-166]	–	0.1 to 20	–
O=C(c1ccc(Oc2ccccc2)cc1)c1cc(-c2ccc3ccccc3c2)c(O)c(O)c1O [TM-167]	> 1	0.1 to 20	–
O=C(c1ccc(Oc2ccccc2)cc1)c1cc(C(=O)c2cccc3ccccc23)c(O)c(O)c1O [TM-168]	–	0.1 to 20	–
O=C(c1ccc(Oc2ccccc2)cc1)c1cc(C(=O)c2ccc3ccccc3c2)c(O)c(O)c1O [TM-169]	> 1	0.1 to 20	–
O=C(c1ccc(Oc2ccccc2)cc1)c1cc(C(=O)c2ccc(Oc3ccccc3)cc2)c(O)c(O)c1O [TM-170]	–	0.1 to 20	–
O=C(c1ccc(Oc2ccccc2)cc1)c1cc(C(=O)c2ccc(-c3ccccc3)cc2)c(O)c(O)c1O [TM-171]	≤ 1	0.1 to 20	–
N.N.[Cl][Pt][Cl] [cisplatin, Cisplatin, reference compound]	–	–	IC50 (MDA-231 cells): ~0.75 µM

Second part, led by results:

IC50 (human Bcl-xL) [µM]	IC50 (MDA-MB-231 (2LMP) cells) [µM]	SMILES	also measured
> 1	0.1 to 20	CCCCCCCCCCCc1cc(C(C)C)c(O)c(O)c1O [TM-105]	IC50 (Bcl-2): > 1 µM
> 1	0.1 to 20	CCCCCCCCCCC(=O)c1cc(C(C)C)c(O)c(O)c1O [TM-106]	IC50 (Bcl-2): > 1 µM
> 1	0.1 to 20	CC(C)c1cc(CCc2ccc3ccccc3c2)c(O)c(O)c1O [TM-107]	IC50 (Bcl-2): > 1 µM
> 1	0.1 to 20	CC(C)c1cc(C(=O)Cc2ccc3ccccc3c2)c(O)c(O)c1O [TM-108]	IC50 (Bcl-2): > 1 µM
> 1	0.1 to 20	CCCCCCCCCCCc1cc(Cc2ccccc2)c(O)c(O)c1O [TM-121]	IC50 (Bcl-2): ≤ 1 µM
> 1	0.1 to 20	CCCCCCCCCCC(=O)c1cc(Cc2ccccc2)c(O)c(O)c1O [TM-122]	IC50 (Bcl-2): ≤ 1 µM
> 1	0.1 to 20	CCCCCCCCCCCc1cc(CC2CCCCC2)c(O)c(O)c1O [TM-129]	IC50 (Bcl-2): > 1 µM
> 1	0.1 to 20	Cc1ccc(Cc2ccc(Cc3cc(CCCc4ccccc4)c(O)c(O)c3O)cc2)cc1 [TM-133]	–
> 1	0.1 to 20	O=C(c1ccc(Oc2ccccc2)cc1)c1cc(Cc2ccccc2)c(O)c(O)c1O [TM-140]	–
> 1	0.1 to 20	Oc1c(Cc2ccccc2)cc(Cc2ccc(Oc3ccccc3)cc2)c(O)c1O [TM-141]	–
> 1	0.1 to 20	Oc1c(Cc2ccccc2)cc(Cc2ccc(-c3ccccc3)cc2)c(O)c1O [TM-142]	IC50 (Bcl-2): > 1 µM
–	0.1 to 20	Cc1cc(Cc2cc(Cc3ccccc3)c(O)c(O)c2O)c(C(C)C)cc1Oc1ccc(C(F)(F)F)cc1[N+](=O)[O-] [TM-144]	–
–	0.1 to 20	Cc1cc(Cc2cc(Cc3ccccc3)c(O)c(O)c2O)c(C(C)C)cc1Oc1ccc([N+](=O)[O-])c(C(F)(F)F)c1 [TM-145]	–
–	0.1 to 20	Cc1cc(Cc2cc(Cc3ccccc3)c(O)c(O)c2O)c(C(C)C)cc1Oc1ccc([N+](=O)[O-])cc1C(F)(F)F [TM-146]	–
–	0.1 to 20	Cc1cc(Cc2cc(Cc3ccccc3)c(O)c(O)c2O)c(C(C)C)cc1Oc1ccnc2ccccc12 [TM-147]	–
–	0.1 to 20	Cc1cc(C(=O)c2cc(Cc3ccccc3)c(O)c(O)c2O)c(C(C)C)cc1Oc1ccc(C(F)(F)F)cc1[N+](=O)[O-] [TM-148]	–
–	0.1 to 20	Cc1cc(C(=O)c2cc(Cc3ccccc3)c(O)c(O)c2O)c(C(C)C)cc1Oc1ccc([N+](=O)[O-])c(C(F)(F)F)c1 [TM-149]	–

— patent US8557812B2, “Small molecule inhibitors of anti-apoptotic BCL-2 family members and the uses thereof” (The Regents of the University of Michigan, priority 2004, dated 2013)
